We go through ten molecules from patent publication US12364702B2, “Highly active sting protein agonist compound” (ADLAI NORTYE BIOPHARMA CO., LTD., priority 2018, dated 2025).

What all share (format): cell-based
The target of one assay is T1, STING WT variant (Homo sapiens, UniProt Q86WV6).
T1 construct: host or cells: HEK-Blue ISG KO-STING cells (Invivogen, hkb-kostg)
Put plainly: SEAP reporter assay in HEK-Blue ISG KO-STING cells transfected with STING WT variant (Method 2). Details: key: ratio of compound SEAP signal to 0.5% DMSO. Conditions: 1 ng STING vector (WT variant), compound 2.5 uM, 24 h, SEAP signal vs 0.5% DMSO. The source says:
(§1) Activation of STING can be determined using a SEAP reporter assay in HEK-Blue™ ISG KO-STING cells (Invivogen, cat #hkb-kostg) transfected with plasmids expressing STING variants (WT & HAQ) (referred to WO2017/175147A1). STING variants (WT & HAQ) vector were constructed based on STING-232H vector (Origene, RC208418). GFP vector (VT2069) was bought from Youbio. The detailed protocol as follows: HEK-Blue™ ISG KO-STING cells were harvest and seeding into 96 well plate and the final cell number was 0.8×10^5 cells/well. Transfections were prepared using Lipofectamine 2000 (Invitrogen, Cat #11668-027) following the manufacturer's instructions (Lipo2000/DNA=1/10), 20 ul of transfection suspension containing 1 ng (WT variant) or 0.0625 ng (HAQ variant) STING vector was added to cell culture plate and incubated at 37° C., 5% CO2 for 24 hours. After 24 hours incubation, compounds were added at proper concentration, the final DMSO concentration was 0.5%. After 24 h incubation, the supernatant was collected to detect SEAP signal using Great EscAPe SEAP chemiluminescence KIT (Clontech, cat #631738) and cells were collected to detect cell viability using CellTiter-Glo Luminescent Cell Viability Assay (Promega, cat #G7573) following the manufacturer's instructions. The data were described by the ratio of the stimulating signal of compounds to 0.5% DMSO.
(In general: Reporter assays use an easily measured gene product as a stand-in for the process of interest.)

A further assay addresses T2, STING HAQ variant (Homo sapiens, UniProt Q86WV6, G230A/R293Q/R71H).
T2 construct: host or cells: HEK-Blue ISG KO-STING cells (Invivogen, hkb-kostg)
Briefly: SEAP reporter assay in HEK-Blue ISG KO-STING cells transfected with STING HAQ variant (Method 2). Details: key: ratio of compound SEAP signal to 0.5% DMSO. Conditions: 0.0625 ng STING vector (HAQ variant), compound 5 uM, 24 h, SEAP signal vs 0.5% DMSO.
Description: as §1

The target in another assay is STING (Homo sapiens, UniProt Q86WV6). Put plainly: IFN-β secretion from THP1 by STING activation (hIFNβ ELISA). Conditions: THP1 cells, 24 h incubation, IFN-β in supernatant, top dose set according to solubility; for pEC50: read-out: hIFNβ ELISA (EC50). In a few lines: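 THP1 cells (2×10^6 cells/ml) exposed 24 h at 37° C, 5% CO2 to 8-point, 3-fold compound dilutions, 0.2% DMSO final, top dose set by solubility. Secreted IFN-β in supernatant measured by human IFNβ ELISA; EC50 from curve fitting.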

The structures appear in SMILES notation. pEC50: −log10 of the molar value.

Sequence of STING (Q86WV6 whole entry): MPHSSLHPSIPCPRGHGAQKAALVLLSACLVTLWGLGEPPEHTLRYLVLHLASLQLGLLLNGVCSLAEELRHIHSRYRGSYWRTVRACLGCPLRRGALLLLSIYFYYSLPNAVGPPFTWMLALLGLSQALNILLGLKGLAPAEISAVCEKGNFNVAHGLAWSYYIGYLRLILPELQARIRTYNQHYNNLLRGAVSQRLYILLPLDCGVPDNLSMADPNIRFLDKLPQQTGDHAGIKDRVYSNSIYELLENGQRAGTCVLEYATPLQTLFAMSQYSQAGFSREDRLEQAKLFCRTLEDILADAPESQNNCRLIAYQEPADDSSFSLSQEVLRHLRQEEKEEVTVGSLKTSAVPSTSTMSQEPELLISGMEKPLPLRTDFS
T2 sequence (Q86WV6 whole entry R71H/G230A/R293Q): as the sequence (Q86WV6 whole entry) above, with R71H, G230A, R293Q counted along it

With `CCn1nc(C)cc1C(=O)Nc1nc2cc(C(N)=O)cc(OCCCN=C(N(C)C)N(C)C)c2n1CCC[C@H]1COc2cc(C(N)=O)cc3nc(NC(=O)c4cc(C)nn4CC)n1c23` [Example 56, (S)-3-(3-(7-(3-((bis(dimethylamino)methylene)amino)propoxy)-5-carbamoyl-2-(1-ethyl-3-methyl-1H-pyrazole-5-carboxamido)-1H-benzo[d]imidazol-1-yl)propyl)-2-(1-ethyl-3-methyl-1H-pyrazole-5-carboxamido)-3,4-dihydro-5-oxa-1,2a-diazaacenaphthylene-7-carboxamide], the “Fold change related to DMSO control WT” value on STING WT variant amounted to 6.76. Besides, the “Fold change related to DMSO control HAQ” value at STING HAQ variant came out at 10.61. For the same molecule, the pEC50 at STING was 4.76.

Consider `CCn1nc(C)cc1C(=O)Nc1nc2cc(C(N)=O)cc(OCCCNC(=O)CN3CCC(O)CC3)c2n1CCC[C@H]1COc2cc(C(N)=O)cc3nc(NC(=O)c4cc(C)nn4CC)n1c23` [Example 40, (S)-3-(3-(5-carbamoyl-2-(1-ethyl-3-methyl-1H-pyrazole-5-carboxamido)-7-(3-(2-(4-hydroxypiperidin-1-yl)acetamido)propoxy)-1H-benzo[d]imidazol-1-yl)propyl)-2-(1-ethyl-3-methyl-1H-pyrazole-5-carboxamido)-3,4-dihydro-5-oxa-1,2a-diazaacenaphthylene-7-carboxamide], for which, at STING WT variant, the “Fold change related to DMSO control WT” value is recorded as 7.82. The “Fold change related to DMSO control HAQ” value on STING HAQ variant stood at 13.94. On STING, the pEC50 was 5.33.

For `CCn1nc(C)cc1C(=O)Nc1nc2cc(C#N)cc(OCCCNC(=O)CN3CCOCC3)c2n1CCC[C@H]1COc2cc(C(N)=O)cc3nc(NC(=O)c4cc(C)nn4CC)n1c23` [Example 46, (S)-3-(3-(5-cyano-2-(1-ethyl-3-methyl-1H-pyrazole-5-carboxamido)-7-(3-(2-morpholinoacetamido)propoxy)-1H-benzo[d]imidazol-1-yl)propyl)-2-(1-ethyl-3-methyl-1H-pyrazole-5-carboxamido)-3,4-dihydro-5-oxa-1,2a-diazaacenaphthylene-7-carboxamide], the “Fold change related to DMSO control WT” value at STING WT variant worked out at 10.68. In addition, the “Fold change related to DMSO control HAQ” value on STING HAQ variant was 12.84. Moreover, on STING, the negative logarithm of the EC50 (pEC50) is under 5.16.

In the case of `CCn1nc(C)cc1C(=O)Nc1nc2cc(C(N)=O)cc(OCCCNC(=O)CN3CC[C@@H](OC)C3)c2n1CCC[C@H]1COc2cc(C(N)=O)cc3nc(NC(=O)c4cc(C)nn4CC)n1c23` [Example 39, (S)-3-(3-(5-carbamoyl-2-(1-ethyl-3-methyl-1H-pyrazole-5-carboxamido)-7-(3-(2-((R)-3-methoxypyrrolidin-1-yl)acetamido)propoxy)-1H-benzo[d]imidazol-1-yl)propyl)-2-(1-ethyl-3-methyl-1H-pyrazole-5-carboxamido)-3,4-dihydro-5-oxa-1,2a-diazaacenaphthylene-7-carboxamide], the “Fold change related to DMSO control WT” value on STING WT variant came to 11.39. Further, the “Fold change related to DMSO control HAQ” value on STING HAQ variant worked out at 16.45. Moreover, at STING, the negative-log EC50 (pEC50) was 5.66.

With `CCn1nc(C)cc1C(=O)Nc1nc2cc(C(N)=O)cc(OCCCO)c2n1CCC[C@H]1CN(C)c2cc(C(N)=O)cc3nc(NC(=O)c4cc(C)nn4CC)n1c23` [Example 57, (S)-4-(3-(5-carbamoyl-2-(1-ethyl-3-methyl-1H-pyrazole-5-carboxamido)-7-(3-hydroxypropoxy)-1H-benzo[d]imidazol-1-yl)propyl)-2-(1-ethyl-3-methyl-1H-pyrazole-5-carboxamido)-6-methyl-5,6-dihydro-4H-imidazo[1,5,4-de]quinoxaline-8-carboxamide], on STING WT variant, the “Fold change related to DMSO control WT” value was 11.24. Also, at STING HAQ variant, the “Fold change related to DMSO control HAQ” value turned out to be 23.35. Moreover, the pEC50 at STING was 5.59.

With `CCn1nc(C)cc1C(=O)Nc1nc2cc(C(N)=O)cc(OCCCNC(=O)CN3CC(COC)C3)c2n1CCC[C@H]1COc2cc(C(N)=O)cc3nc(NC(=O)c4cc(C)nn4CC)n1c23` [Example 41, (S)-3-(3-(5-Carbamoyl-2-(1-ethyl-3-methyl-1H-pyrazole-5-carboxamido)-7-(3-(2-(3-(methoxymethyl)azetidin-1-yl)acetamido)propoxy)-1H-benzo[d]imidazol-1-yl)propyl)-2-(1-ethyl-3-methyl-1H-pyrazole-5-carboxamido)-3,4-dihydro-5-oxa-1,2a-diazaacenaphthylene-7-carboxamide], on STING WT variant, the “Fold change related to DMSO control WT” value is 7.15. The “Fold change related to DMSO control HAQ” value on STING HAQ variant is given as 19.38. Besides, at STING, the pEC50 was 5.06.

Turning to `CCn1nc(C)c(F)c1C(=O)Nc1nc2cc(C(N)=O)cc(OCCCOC)c2n1CCC[C@H]1COc2cc(C(N)=O)cc3nc(NC(=O)c4c(F)c(C)nn4CC)n1c23` [Example 49, (S)-3-(3-(5-carbamoyl-2-(1-ethyl-4-fluoro-3-methyl-1H-pyrazole-5-carboxamido)-7-(3-methoxypropoxy)-1H-benzo[d]imidazol-1-yl)propyl)-2-(1-ethyl-4-fluoro-3-methyl-1H-pyrazole-5-carboxamido)-3,4-dihydro-5-oxa-1,2a-diazaacenaphthylene-7-carboxamide], on STING WT variant, the “Fold change related to DMSO control WT” value turned out to be 11.17. Also, on STING HAQ variant, the “Fold change related to DMSO control HAQ” value is on record as 27.58. Further, on STING, the pEC50 is 6.30.

As to `CCn1nc(C)cc1C(=O)Nc1nc2cc(C(N)=O)cc(OCCCNC(=O)CN3CCOCC3)c2n1CCC[C@H]1COc2cc(C(N)=O)cc3nc(NC(=O)c4c(Cl)c(C)nn4CC)n1c23` [Example 55, (S)-3-(3-(5-carbamoyl-2-(1-ethyl-3-methyl-1H-pyrazole-5-carboxamido)-7-(3-(2-morpholinoacetamido)propoxy)-1H-benzo[d]imidazol-1-yl)propyl)-2-(4-chloro-1-ethyl-3-methyl-1H-pyrazole-5-carboxamido)-3,4-dihydro-5-oxa-1,2a-diazaacenaphthylene-7-carboxamide], the “Fold change related to DMSO control WT” value on STING WT variant stood at 11.71. Also, the “Fold change related to DMSO control HAQ” value at STING HAQ variant is given as 26.34. For the same molecule, the pEC50 on STING is 5.92.

Take `CCn1nc(C)cc1C(=O)Nc1nc2cc(C(N)=O)cc(OCCCNC(=O)CN3CCOCC3)c2n1CCC[C@H]1COc2cc(C#N)cc3nc(NC(=O)c4cc(C)nn4CC)n1c23` [Example 47, (S)-1-(3-(7-cyano-2-(1-ethyl-3-methyl-1H-pyrazole-5-carboxamido)-3,4-dihydro-5-oxa-1,2a-diazaacenaphthylen-3-yl)propyl)-2-(1-ethyl-3-methyl-1H-pyrazole-5-carboxamido)-7-(3-(2-morpholinoacetamido)propoxy)-1H-benzo[d]imidazole-5-carboxamide]: the “Fold change related to DMSO control WT” value at STING WT variant is on record as 9.80. In addition, on STING HAQ variant, the “Fold change related to DMSO control HAQ” value came to 9.16. Also, the “hIFNβ ELISA (EC50, μM)” value on STING was “inactive”.

As to `CCn1nc(C)cc1C(=O)Nc1nc2cc(C(N)=O)cc(OCCCNC(=O)CN3CCOCC3)c2n1CCC[C@H]1COc2cc(C(N)=O)cc3nc(NC(=O)c4c(F)c(C)nn4CC)n1c23` [Example 53, (S)-3-(3-(5-carbamoyl-2-(1-ethyl-3-methyl-1H-pyrazole-5-carboxamido)-7-(3-(2-morpholinoacetamido)propoxy)-1H-benzo[d]imidazol-1-yl)propyl)-2-(1-ethyl-4-fluoro-3-methyl-1H-pyrazole-5-carboxamido)-3,4-dihydro-5-oxa-1,2a-diazaacenaphthylene-7-carboxamide], the “Fold change related to DMSO control WT” value on STING WT variant worked out at 10.85. Moreover, the “Fold change related to DMSO control HAQ” value on STING HAQ variant is 17.39. In addition, the pEC50 on STING is 5.92.

As a reminder, the pEC50 is the EC50 on a negative log10 scale, so that one unit is a factor of ten.
